{"source": "patent US9752049B2", "about": "“Optically transparent, superhydrophobic, biocompatible thin film coatings and methods for producing same” (UT-BATTELLE, LLC, priority 2014, dated 2017)", "assay": "physchem", "details": "organic solvent or mixture, Solubility Limit", "from_the_text": "The first step was to gather solubility data on the fatty acids in readily available solvents. […] The available solvents included ethanol, isopropanol, hexane, and acetone.\nThe next step was to use spin-coating to apply the optimum mixture of each fatty acid/alcohol solution to microscope slides. This process began with cleaning the slide, then affixing it to the spin-coater by turning on the internal vacuum. Once the slide was in place, the chosen solution was applied by a syringe using a 0.02 micron filter. This filter was to ensure that only the pure solution and no contaminants or occasional precipitates made it onto the slide. The coated slide was then spun at 1000 rpm for thirty seconds and placed on a hot plate at 152 degrees Fahrenheit to vaporize any remaining solvent. The slide was allowed to cool for two minutes. Once cool, the slide was subjected to a simple yet effective test of hydrophobicity. This test consisted of merely placing a water droplet on the slide using a Pasteur pipet and eyeballing it to see if it even merited further characterization. This process was repeated for many slides, each time varying the type of fatty acid and the solvent as well as the concentration of the fatty acid in the solvent. […] Below is additional solubility data for Behenic Acid: […]", "data": [{"smiles": "CCCCCCCCCCCCCC(=O)O", "note": "[Myristic Acid]", "values": [{"measurement": "solubility", "result": 300, "unit": "mM"}]}]}
